Consider five compounds from US7232829B2, “Therapeutic compounds and methods” (Regents of the University of Minnesota, priority 2001, dated 2007).

Molecules are shown by their SMILES. Where two headings read alike, the source gives them in different places.

By Ki is commonly meant a measure of affinity in units of concentration, obtained from inhibition or displacement.

For test [1], the target named is T1, rat kappa-opioid receptor (Rattus norvegicus, UniProt P34975).
T1 construct: expressed in transfected cells; host or cells: HEK-293 (transient, calcium phosphate)
Kind of test: [3H]diprenorphine binding on transiently transfected HEK-293 cells, kappa. The conditions noted are these: for Ki: [3H]diprenorphine, HEK-293 cells, rat kappa receptor, read-out: Ki κ. As for the experimental part: (§1) Receptor Binding. HEK-293 in DMEM (Gibco, BRL) supplemented with 10% Bovine Calf Serum (Hyclone) and 1% penicillin/streptomycin (Gibco, BRL) were maintained at 37° C. and in 5% CO2. Cells were seeded at 16% for 24 hours prior to transfection. Fresh media was added 2 hours prior to transfection. Cells were transfected with plasmid DNA (20 μg/100 mm plate) of either wild type or mutant receptor cDNA using the calcium phosphate precipitation method, see Chen, C.; Okayama, H. High Efficiency Transformation of Mammalian Cells by Plasmid DNA. Mol. Cell. Bio. 1987, 7, 2745–2752. Media was changed 5 hours after transfection. Transfected cells were harvested 48–72 hours after transfection for binding studies.
(§2) Sixty to 72 hours after transfection, HEK cells were washed three times with 25 mM HEPES buffer (pH 7.4) and were resuspended with 8–12 mL of 25 mM HEPES/100 mm plate. Saturation binding assays were performed in triplicate. Nonselective binding was determined using 10 μM naltrexone. Assays were incubated at room temperature for 90 minutes in a total binding volume of 0.5 mL and were terminated by filtration through a Whatman GF/B filter that had been presoaked in 0.25% poly(ethyleneimine) immediately prior to filtration. Filters were washed three times with 4 mL of ice-cold 25 mM HEPES buffer, and scintillation counting was performed with a Beckman 3801 LS Scintillation Counter. Protein concentrations were determined by the method of Bradford, see Bradford, M. M. A Rapid and Selective Method for the Quantitation of Microgram Quantities of Protein utilizing the Principle of Protein-dye Binding. Anal. Biochem. 1976, 72, 248–254. Raw binding data was analyzed with RADLIG and LIGAND (G. A. McPherson, Biosoft, Cambridge, UK). Inhibition constants (Ki) were determined from IC50 values with the Cheng-Prusoff equation, see Cheng, Y. C.; Prusoff, W. H.; Relationship between the inhibition Constant (Ki) and the concentration of inhibitor which causes 50 per cent inhibition (I50) of an enzymatic reaction. Biochem. Pharmacol. 1973, 22, 3099–3108.
(§3) As summarized in Table 2, receptor binding was determined in triplicate using [^3H]diprenorphine on HEK-293 cells that were transiently transfected with plasmids encoding rat kappa-, rat mu-, or mouse delta-opioid receptors.

The target of another test is T2, rat mu-opioid receptor (Rattus norvegicus, UniProt P33535).
T2 construct: expressed in transfected cells; host or cells: HEK-293 (transient, calcium phosphate)
The test is described as follows: [3H]diprenorphine binding on transiently transfected HEK-293 cells, mu. The settings on record: for Ki: [3H]diprenorphine, HEK-293 cells, rat mu receptor, read-out: Ki μ. As for the experimental part: as §1, §2, §3

Test [2] deals with T3, mouse delta-opioid receptor (Mus musculus, UniProt P32300).
T3 construct: expressed in transfected cells; host or cells: HEK-293 (transient, calcium phosphate)
Kind of test: [3H]diprenorphine binding on transiently transfected HEK-293 cells, delta. The conditions noted are these: for Ki: [3H]diprenorphine, HEK-293 cells, mouse delta receptor, read-out: Ki δ; for binding to delta receptor (in words): cloned receptors, HEK-293. As for the experimental part:
as §1, §2
As summarized in Table 2, receptor binding was determined in triplicate using [^3H]diprenorphine on HEK-293 cells that were transiently transfected with plasmids encoding rat kappa-, rat mu-, or mouse delta-opioid receptors. […] The results are consistent with the kappa agonist selectivity of compound 4b observed in the GPI. […] Binding to mu receptors was uniformly low for all regioisomers.

The target in a further test is T4, kappa opioid receptor (Cavia porcellus, UniProt P41144).
T4 construct: tested on the electrically stimulated guinea-pig ileal longitudinal muscle (GPI); from tissue; host or cells: guinea-pig ileal longitudinal muscle
The test is described as follows: Antagonism of ethylketazocine (EK) in the electrically stimulated guinea-pig ileal longitudinal muscle (GPI) preparation. The format is cell-based. The settings on record: for EK (κ) IC50 ratio: GPI, antagonist tested at 100 nM, mean (n). As for the experimental part:
(§4) Smooth Muscle Preparations. […] All of the compounds were tested on the electrically stimulated guinea-pig ileal longitudinal muscle (GPI), see Rang, H. P. Stimulant Actions of Volatile Anaesthetics on Smooth Muscle. Br. J. Pharmacol. 1964, 22, 356–365, and the mouse vas-deferens (MVD), see Henderson, G.; Hughes, J.; Kosterlitz, H. W. A New Example of a Morphine-Sensitive Neuroeffector Junction: Adrenergic Transmission in the Mouse vas Deferens. Br. J. Pharmacol. 1972, 46, 764–766, preparations for their agonist and antagonist activities as previously described, see (a) Portoghese, P. S.; Lipkowski, A. W.; Takemori, A. E. Binaltorphimine and Nor-binaltorphimine, Potent and Selective Kappa-Opioid Receptor Antagonists. Life Sci. 1987, 40, 1287–1292. (b) Portoghese, P. S.; Takemori, A. E. TENA. A Selective Kappa Opioid Receptor Antagonist. Life Sci. 1985, 36, 801–805. […] Morphine (M), (−)-ethylketazocine (EK), and [D-Ala^2,D-Leu^5]enkephalin (DADLE) were employed as mu, kappa and delta selective agonists, respectively. Morphine and EK were used in the GPI, and DADLE was employed in the MVD studies. Concentration-response curves were obtained in the absence (control) and presence of the antagonist in the same preparation. Antagonist potency is expressed as an IC50 ratio, that is the IC50 of the agonist in the presence of antagonist divided by the control IC50 of the agonist in the same preparation, and as a Ke value derived from the relationship, Ke=[antagonist]/[…].

In the next test the test system is mu opioid receptor. The test is described as follows: Antagonism of morphine (M) in the electrically stimulated guinea-pig ileal longitudinal muscle (GPI) preparation. The format is cell-based. The conditions noted are these: for M (μ) IC50 ratio: GPI, antagonist tested at 100 nM, mean ± SEM (n); for mu opioid receptor antagonist activity (in words): smooth muscle preparations; for M (μ) Ke: GPI preparation, agonist morphine, Ke derived from IC50 ratio. As for the experimental part:
as §4

In another test the target is T5, delta opioid receptor (Mus musculus, UniProt P32300).
T5 construct: and the mouse vas-deferens (MVD); from tissue; host or cells: mouse vas deferens
Kind of test: Antagonism of DADLE in the mouse vas-deferens (MVD) preparation. Format: cell-based. The conditions noted are these: for DADLE (δ) IC50 ratio: MVD, antagonist tested at 100 nM, mean ± SEM (n); for delta opioid receptor antagonist activity (in words): smooth muscle preparations. As for the experimental part: as §4

Test [3] concerns guinea-pig ileal longitudinal muscle (GPI). The test is described as follows: Agonist activity in the GPI assay (concentration-response compared to morphine, reversal by antagonists). The format is cell-based. As for the experimental part: as §4
The subject of the next test is mouse vas-deferens (MVD). The test is described as follows: Agonist activity in the MVD assay. Format: cell-based. The conditions noted are these: at 1 μM. As for the experimental part: as §4, with “Concentration-response curves were obtained in the absence (control) and presence of the antagonist in the same preparation.” left out

T2 sequence (P33535 whole entry): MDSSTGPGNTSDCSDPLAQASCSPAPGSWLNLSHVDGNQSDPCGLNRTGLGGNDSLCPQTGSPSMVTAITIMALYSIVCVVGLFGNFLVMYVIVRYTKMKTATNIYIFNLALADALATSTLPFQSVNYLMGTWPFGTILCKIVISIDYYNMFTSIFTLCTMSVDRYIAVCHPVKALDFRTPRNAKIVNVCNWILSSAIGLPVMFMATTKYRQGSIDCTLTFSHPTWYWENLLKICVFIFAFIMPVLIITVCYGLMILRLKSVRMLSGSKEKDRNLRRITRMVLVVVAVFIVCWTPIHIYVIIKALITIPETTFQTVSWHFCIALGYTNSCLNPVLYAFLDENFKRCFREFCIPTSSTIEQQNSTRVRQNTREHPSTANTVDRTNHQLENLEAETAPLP
T1 sequence (P34975 whole entry): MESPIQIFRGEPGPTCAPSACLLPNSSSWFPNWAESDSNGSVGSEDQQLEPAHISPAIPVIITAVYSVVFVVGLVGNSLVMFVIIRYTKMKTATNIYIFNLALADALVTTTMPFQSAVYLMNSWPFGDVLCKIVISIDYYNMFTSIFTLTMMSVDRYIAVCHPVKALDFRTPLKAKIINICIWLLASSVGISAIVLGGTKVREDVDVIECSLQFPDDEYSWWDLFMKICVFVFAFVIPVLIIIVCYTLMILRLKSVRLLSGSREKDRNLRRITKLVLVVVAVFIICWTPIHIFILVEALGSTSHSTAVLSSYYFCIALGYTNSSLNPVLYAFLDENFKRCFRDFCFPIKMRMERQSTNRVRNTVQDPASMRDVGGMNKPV
T4 sequence (P41144 whole entry): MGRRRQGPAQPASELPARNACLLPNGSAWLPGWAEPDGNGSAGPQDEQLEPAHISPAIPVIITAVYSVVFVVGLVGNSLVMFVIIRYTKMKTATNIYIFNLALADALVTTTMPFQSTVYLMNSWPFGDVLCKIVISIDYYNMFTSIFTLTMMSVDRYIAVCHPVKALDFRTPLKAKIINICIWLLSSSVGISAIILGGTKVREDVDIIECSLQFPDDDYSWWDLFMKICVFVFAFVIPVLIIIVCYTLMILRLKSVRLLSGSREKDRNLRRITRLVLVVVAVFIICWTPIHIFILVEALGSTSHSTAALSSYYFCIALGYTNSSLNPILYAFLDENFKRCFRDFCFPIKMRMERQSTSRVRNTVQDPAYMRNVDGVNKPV
T3 sequence (P32300 whole entry): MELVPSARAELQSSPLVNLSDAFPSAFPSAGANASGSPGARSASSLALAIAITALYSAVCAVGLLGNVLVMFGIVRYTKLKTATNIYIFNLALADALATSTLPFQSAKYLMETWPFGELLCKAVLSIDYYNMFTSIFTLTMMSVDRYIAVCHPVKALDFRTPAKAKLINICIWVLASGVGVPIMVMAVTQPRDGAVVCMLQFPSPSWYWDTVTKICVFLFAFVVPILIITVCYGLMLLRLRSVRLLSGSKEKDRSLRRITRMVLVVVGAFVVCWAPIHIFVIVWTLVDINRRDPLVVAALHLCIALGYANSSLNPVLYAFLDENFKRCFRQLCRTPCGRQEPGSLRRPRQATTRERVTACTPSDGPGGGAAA
T5 sequence (P32300 whole entry): as above

With `N=C(N)Nc1ccc2[nH]c3c(c2c1)C[C@@]1(O)[C@H]2Cc4ccc(O)c5c4[C@@]1(CCN2CC1CC1)[C@H]3O5` [Compound 3, 5′-Guanidino-17-(cyclopropylmethyl)-6,7-didehydro-4,5α-epoxy-3,14-hydroxyindolo-[2′,3′:6,7]morphinian, reference compound], the Ki in test [1] was 0.14 ± 0.03 nM; on rat mu-opioid receptor, 99.7 ± 8.7 nM; in test [2] it was 24.8 ± 11.3 nM. In addition, the “affinity for the kappa receptor relative to mu and delta receptors” value in test [1] (cloned receptors, HEK-293) is recorded as “greater than two orders of magnitude”. The Kb on kappa opioid receptor was determined as 0.16 nM. Moreover, at kappa opioid receptor (smooth muscle preparations), the “kappa antagonist potency relative to norBNI 1” value was “approximately four-fold”. Besides, the “kappa opioid receptor antagonist activity (in words)” value on kappa opioid receptor (smooth muscle preparations) was “highly potent and selective kappa opioid receptor antagonist”.
In the case of `N=C(N)Nc1cccc2[nH]c3c(c12)C[C@@]1(O)[C@H]2Cc4ccc(O)c5c4[C@@]1(CCN2CC1CC1)[C@H]3O5` [Compound 4a, 4′-Guanidino-17-(cyclopropylmethyl)-6,7-didehydro-4,5α-epoxy-3,14-hydroxyindolo-[2′,3′:6,7]morphinian], in the test with mu opioid receptor, the “M (μ) IC50 ratio” value is recorded as 0.34 (2) and the “mu opioid receptor antagonist activity (in words)” value was “virtually inactive”. For the same compound, the “binding to kappa receptor (in words)” value in test [1] (cloned receptors, HEK-293) is recorded as “eliminated binding”. Also, at rat mu-opioid receptor (cloned receptors, HEK-293), the “binding to mu receptor (in words)” value is recorded as “eliminated binding”. Further, the “binding to delta receptor (in words)” value in test [2] was “eliminated binding”. For the same compound, on delta opioid receptor, the Kb was found to be 263 nM, the “DADLE (δ) IC50 ratio” value was 1.4 (2) and the “delta opioid receptor antagonist activity (in words)” value was “virtually inactive”. At kappa opioid receptor, the Kb is 80 nM and the “EK (κ) IC50 ratio” value is reported as 2.3 (2). Besides, the “kappa opioid receptor antagonist activity (in words)” value on kappa opioid receptor (smooth muscle preparations) is “virtually inactive”.
Consider `N=C(N)Nc1ccc2c3c([nH]c2c1)[C@@H]1Oc2c(O)ccc4c2[C@@]12CCN(CC1CC1)[C@H](C4)[C@]2(O)C3` [Compound 4b, 6′-Guanidino-17-(cyclopropylmethyl)-6,7-didehydro-4,5α-epoxy-3,14-hydroxyindolo-[2′,3′:6,7]morphinian], for which, in test [3] (GPI assay, FIG. 5), the “agonist potency relative to that of morphine” value is 51 fold. Also, the “agonist activity and selectivity (in words)” value in test [3] (GPI assay, with MVD results) was “kappa-selective agonist”. For the same compound, the “reversal of the agonist effect by naltrexone” value in test [3] (GPI, naltrexone 500 nM) is on record as “only partially reversed”. In addition, the “reversal of the agonist effect by norBNI” value in test [3] (GPI, norBNI 20 nM) is recorded as “completely reversed”. Besides, the inhibition constant (Ki) in test [1] worked out at 1.15 ± 0.39 nM; at rat mu-opioid receptor, 81.8 ± 20.7 nM; in test [2], 20.3 ± 6.7 nM. Further, in test [1] (cloned receptors, HEK-293), the “affinity for kappa receptors relative to GNTI” value is on record as “one-tenth”. In test [1] (cloned receptors, HEK-293), the “binding to kappa receptor (in words)” value is “kappa-selective”. The “agonist activity in MVD assay” value in the test with mouse vas-deferens (MVD) is “inactive as an agonist”.
As to `N=C(N)Nc1cccc2c3c([nH]c12)[C@@H]1Oc2c(O)ccc4c2[C@@]12CCN(CC1CC1)[C@H](C4)[C@]2(O)C3` [Compound 4c, 7′-Guanidino-17-(cyclopropylmethyl)-6,7-didehydro-4,5α-epoxy-3,14-hydroxyindolo-[2′,3′:6,7]morphinian], in the test with mu opioid receptor, the “M (μ) Ke” value came to 238 nM, the “M (μ) IC50 ratio” value is on record as 1.4 ± 0.9 (3) and the “mu opioid receptor antagonist activity (in words)” value is “inactive”. Besides, the Ki in test [1] was determined as 69.1 ± 25 nM. For the same compound, the Ki at rat mu-opioid receptor stood at 181 ± 20 nM. In addition, in test [2], the Ki came out at 2.75 ± 0.48 nM and the “binding to delta receptor (in words)” value was “delta selectivity”. Also, on delta opioid receptor, the Kb was 0.96 nM, the “DADLE (δ) IC50 ratio” value was 105 ± 30 (4) and the “delta opioid receptor antagonist activity (in words)” value is “potent delta opioid receptor antagonist”. In addition, on kappa opioid receptor, the Kb was determined as 100 nM and the “EK (κ) IC50 ratio” value is listed as 2.0 (2). In addition, at kappa opioid receptor (smooth muscle preparations), the “kappa opioid receptor antagonist activity (in words)” value is “inactive”.
Turning to `Oc1ccc2c3c1O[C@H]1c4[nH]c5c(c4C[C@@]4(O)[C@@H](C2)N(CC2CC2)CC[C@]314)C[C@@]1(O)[C@H]2Cc3ccc(O)c4c3[C@@]1(CCN2CC1CC1)[C@H]5O4` [Compound 1, Norbinaltorphimine, reference compound], the “M (μ) Ke” value in the test with mu opioid receptor worked out at 12.5 nM. The Kb at kappa opioid receptor (GPI preparation, agonist ethylketazocine, Ke derived from IC50 ratio, read-out: EK (κ) Ke) was 0.41 nM.
